# Like-named read-outs stand apart in the source and are kept apart here.
# Tests used:
# [1] = test system: DENV2; assay: Plaque assay of released virus, DENV2-infected Vero cells; format: cell-based; conditions: Dengue virus
# Method: (§1) Vero cells were infected with DENV1-4 at an MOI of 1 for 2 h (post infection, p.i., (A)), after which virus was removed, and fresh maintenance medium containing 2% FCS together with the indicated concentration of C10 added. For co-treat condition (c.t., (B)), Vero cells were infected with DENV1-4 at an MOI of 1 in the presence of C10 for 2 h, followed by removal of the virus/C10 inoculums, and addition of fresh 2% fetal calf serum maintenance medium. […] Results represent the mean ±SD for duplicate wells from a single assay, representative of 2 independent experiments (cf. Tables 2A and 2B, infra, for pooled data).
# (§2) Vero and BHK-21 cells were maintained in DMEM media supplemented with 10% heat-inactivated FBS at 37° C. in a humidified incubator supplemented with 5% CO2; A549 cells were maintained in F-12K medium supplemented with 10% heat-inactivated Fetal Bovine Serum (FBS), 2 mM L-glutamine, 50 U/I penicillin, 0.05 mg/l streptomycin. […] Viral titer was subsequently determined by plaque assay (see below).
# (§3) Vero cells were seeded into 24-well plates at a density of 2×10^5 cells/well and grown overnight in culture medium at 37° C. with 5% CO2 prior to infection with RSV, KUNV, ZIKV as indicated. […] The stain was removed by rinsing the cells with tap water, and the viral plaques were counted visually. […]
# [2] = test system: DENV3; assay: Plaque assay of released virus, DENV3-infected Vero cells; format: cell-based; conditions: Dengue virus
# Method: as §1, §2, §3
# [3] = test system: DENV-2; assay: Antiviral effect on DENV (virus release and entry), Vero cells, MOI 5; format: cell-based, Dengue virus; conditions: co-treatment
# Method: (A) Vero cells were seeded and infected with DENV-2 at a multiplicity of infection (MOI) of 5. For co-treatment cells were incubated with a premixed suspension of drug and virus, for post-treatment with virus only for 2 h. Cells were subsequently washed with PBS and cultivated for co-treatment in DMEM supplemented with 2% FCS, for post-treatment in DMEM supplemented with 2% FCS spiked with the indicated concentrations of C10. The drug containing medium for post-treated cells was removed after 2 h and replenished with fresh DMEM supplemented with 2% FCS. 24 h after infection the supernatants were used for a Plaque assay. (B) RNA extraction; n=3 with SEM. (C, D) Cells were lysed for Western blot analysis using antibodies against viral proteins NS3 and NS5 and tubulin as a loading control.
# For this purpose, Vero cells were plated and infected with DENV-2 at an infection multiplicity (MOI) of 5. For co-treatment, the cells were incubated with a previously mixed suspension of active substance and virus, for post-treatment with the virus alone, each for 2 h. The cells were then washed with PBS and cultivated for co-treatment in DMEM with 2 % FCS, for post-treatment in DMEM with 2 % FCS mixed with the indicated concentrations of compound C10. For the post-treated cells, the medium containing the active substance was removed after 2 h and replaced by fresh medium with 2 % FCS. […]
# [4] = test system: hematopoietic stem cell formation; assay: Effect on zebrafish hematopoietic stem cell formation (in situ runx-1+c-myb); format: in vivo; conditions: 36 hpf
# Method: Zebrafish embryos were exposed 20-30 min after fertilization to differing concentrations of the compounds C10 and D1 (5 μM; 15 μM; 25 μM) or to medium containing the corresponding solvent (DMSO) concentration. Therefore, 3-5 embryos were sorted into each of three wells of a 96 well plate containing 200 μl of medium. For phenotype analysis, triplicates were imaged after 6-7 h post fertilization (hpf) at approximately shield stage, after 24 hpf and after 48 hpf. Dead +unfertilized embryos were removed. For imaging at 24 hpf +48 hpf; embryos were anesthetized using MESAB. (A) Diagramm showing the percentage of embryos at each time point either developing normal (blue color) or with the indicated phenotype. (B) representative images of embryos treated with the indicated compounds, or controls at the respective time points. (C) To additionally elucidate the influence on hematopoietic stem cell formation, approx. half of the embryos were sampled at 36 hpf and an in situ staining for runx-1+c-myb was performed. Shown are representative images of hematopoietic stem cell formation with the treatment indicated.
# Embryos were exposed 20-30 min after fertilization to differing concentrations of the compounds C10 and D1 (5 μM; 15 μM; 25 μM) or to medium containing the corresponding solvent (DMSO) concentration. […]
# [5] = Metabolic stability in mouse liver microsomes; conditions: for % Remain. Mean of 2: with NADPH; for % Remain. without cofactor, Mean of 2: without NADPH cofactor
# Method: Microsomal incubations were carried out in 96-well plates in 5 aliquots of […] each (one for each time point). […] Control incubations were performed replacing the NADPH-cofactor system with PBS. […] Incubations were performed in duplicates. Five time points over 40 minutes had been analyzed. The reactions were stopped by adding 12 volumes of 90% acetonitrile-water to incubation aliquots, followed by protein sedimentation by centrifuging at 5500 rpm for 3 minutes. […]. Supernatants were analyzed using the HPLC system coupled with tandem mass spectrometer.
# The elimination constant (kel), half-life (t½) and intrinsic clearance (Clint) were determined in plot of In(AUC) versus time, using linear regression analysis (In order to indicate the quality of the linear regression analysis, the R (correlation coefficient) values are provided. In some cases, the last time point is excluded from the calculations to ensure acceptable logarithmic linearity of decay): […]
structure (smiles),measurement,setting,value
"CCN1/C(=C\C=C\c2sc3cc(NC(C)=O)ccc3[n+]2CC)Sc2cc(NC(C)=O)ccc21.[I-] [C10, 6-acetamido-2-((1E,3E)-3-(6-acetamido-3-ethylbenzo[d]thiazol-2(3H)-ylidene)prop-1-en-1-yl)-3-ethylbenzo[d]thiazol-3-ium iodide]",EC50,"[1]; read-out: EC50 from plaque assays, DENV2, c.t.",40 nM
same,EC50,"[1]; read-out: EC50 from plaque assays, DENV2, p.i.",1300 nM
same,EC50,"[2]; read-out: EC50 from plaque assays, DENV3, c.t.",10 nM
same,EC50,"[2]; read-out: EC50 from plaque assays, DENV3, p.i.",600 nM
same,"viral proteins in cells (Western blot NS3, NS5)","[3]; 1 μM, compared to DMSO","viral proteins are detectable in the cells, albeit at lower amounts"
same,"productive infection (Western blot NS3, NS5)",[3]; 10 μM,prevents a productive infection of the cells
same,hematopoietic stem cell formation,[4],no difference to the WT embryos
same,half-life at 2 mM,"[5]; male, Balb/c, mouse, microsomes, pH 7.4",5.79 h
same,CIint,[5]; mouse liver microsomes,5 µL/min/mg
same,Kel,[5]; mouse liver microsomes,0.002 min⁻¹
same,stability in mouse hepatic microsomal test system,"[5]; mouse, microsomes",good stability
same,% Remain. Mean of 2,"[5]; 0.42 mg protein per ml, 0 min",100%
same,% Remain. Mean of 2,[5]; 10 min,100%
same,% Remain. Mean of 2,[5]; 20 min,96%
same,% Remain. Mean of 2,[5]; 30 min,95%
same,% Remain. Mean of 2,[5]; 40 min,88%
same,"% Remain. without cofactor, Mean of 2",[5]; 0 min,100%
same,"% Remain. without cofactor, Mean of 2",[5]; 40 min,86%
